Test results reported in patent US20230085307A1, “PYRIDAZINONE COMPOUND AND HERBICIDE” (NISSAN CHEMICAL CORPORATION, priority 2019, published 2023).

Experiments:
blackgrass = test: Test Example 5: herbicidal effect by foliage application, plastic box (Table 20, symbol J); assay type: in vivo, blackgrass (Alopecurus myosuroides); details: foliage application, 320 g/ha, evaluated three weeks after application
Outline: (§1)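 Plants sown in sterilized diluvial soil and grown 14 days in a greenhouse at 25° C to 30° C, then sprayed on the foliage with the compound's emulsion diluted in water to a predetermined herbicide amount. Injury to weeds and crops scored three weeks after application on a visual rating scale.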

windgrass = test: Test Example 5: herbicidal effect by foliage application, plastic box (Table 20, symbol L); assay type: in vivo, windgrass (Apera spica-venti); details: foliage application, 320 g/ha, evaluated three weeks after application
Outline: as §1

green foxtail = test: Test Example 5: herbicidal effect by foliage application, plastic box (Table 20, symbol G); assay type: in vivo, green foxtail (Setaria viridis); details: foliage application, 320 g/ha, evaluated three weeks after application
Outline: as §1

lambsquarters = test: Test Example 5: herbicidal effect by foliage application, plastic box (Table 20, symbol O); assay type: in vivo, lambsquarters (Chenopodium album); details: foliage application, 320 g/ha, evaluated three weeks after application
Outline: as §1

persian speedwell = test: Test Example 5: herbicidal effect by foliage application, plastic box (Table 20, symbol R); assay type: in vivo, Persian speedwell (Veronica persica); details: foliage application, 320 g/ha, evaluated three weeks after application
Outline: as §1

velvetleaf = test: Test Example 5: herbicidal effect by foliage application, plastic box (Table 20, symbol M); assay type: in vivo, velvetleaf (Abutilon theophrasti); details: foliage application, 320 g/ha, evaluated three weeks after application
Outline: as §1

wild oat = test: Test Example 5: herbicidal effect by foliage application, plastic box (Table 20, symbol I); assay type: in vivo, wild oat (Avena fatua); details: foliage application, 320 g/ha, evaluated three weeks after application
Outline: as §1

southern crabgrass = test: Test Example 5: herbicidal effect by foliage application, plastic box (Table 20, symbol F); assay type: in vivo, southern crabgrass (Digitaria ciliaris); details: foliage application, 320 g/ha, evaluated three weeks after application
Outline: as §1

rice flat sedge = test: Test Example 3: herbicidal effect by foliage application, Wagner pot (Table 18, symbol E); assay type: in vivo, rice flat sedge (Cyperus iria); details: for herbicidal effect on E: rice flat sedge: amount of applied herbicide 320 g/ha
Outline: (§2)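 Plants were sown in alluvial soil held under 0.1–0.5 cm standing water and grown 14 days in a greenhouse at 25–30 °C. An emulsifiable formulation, water-diluted to the set dose, was then sprayed onto the foliage, and effects were scored three weeks later using previously defined criteria.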

Italian ryegrass = test: Test Example 5: herbicidal effect by foliage application, plastic box (Table 20, symbol K); assay type: in vivo, Italian ryegrass (Lolium multiflorum); details: foliage application, 320 g/ha, evaluated three weeks after application
Outline: as §1

Chinese sprangletop = test: Test Example 3: herbicidal effect by foliage application, Wagner pot (Table 18, symbol D); assay type: in vivo, chinese sprangletop (Leptochloa chinensis); details: for herbicidal effect on D: Chinese sprangletop: amount of applied herbicide 320 g/ha
Outline: as §2

redroot pigweed = test: Test Example 5: herbicidal effect by foliage application, plastic box (Table 20, symbol N); assay type: in vivo, redroot pigweed (Amaranthus retroflexus); details: foliage application, 320 g/ha, evaluated three weeks after application
Outline: as §1

barnyard grass [1] = test: Test Example 5: herbicidal effect by foliage application, plastic box (Table 20, symbol H); assay type: in vivo, barnyard grass (Echinochloa crus-galli); details: foliage application, 320 g/ha, evaluated three weeks after application
Outline: as §1

barnyard grass [2] = test: Test Example 3: herbicidal effect by foliage application, Wagner pot (Table 18, symbol H); assay type: in vivo, barnyard grass (Echinochloa crus-galli); details: for herbicidal effect on H: barnyard grass: amount of applied herbicide 320 g/ha
Outline: as §2

chickweed = test: Test Example 5: herbicidal effect by foliage application, plastic box (Table 20, symbol P); assay type: in vivo, common chickweed (Stellaria media); details: foliage application, 320 g/ha, evaluated three weeks after application
Outline: as §1

SMILES | herbicidal effect on J: blackgrass (criteria 0-5) (blackgrass) | herbicidal effect on L: windgrass (criteria 0-5) (windgrass) | herbicidal effect on G: green foxtail (criteria 0-5) (green foxtail) | herbicidal effect on O: lambsquarters (criteria 0-5) (lambsquarters) | herbicidal effect on R: persian speedwell (criteria 0-5) (persian speedwell) | herbicidal effect on M: velvetleaf (criteria 0-5) (velvetleaf) | herbicidal effect on I: wild oat (criteria 0-5) (wild oat) | herbicidal effect on F: southern crabgrass (criteria 0-5) (southern crabgrass) | herbicidal effect on E: rice flat sedge (rice flat sedge) | herbicidal effect on K: Italian ryegrass (criteria 0-5) (Italian ryegrass) | herbicidal effect on D: Chinese sprangletop (Chinese sprangletop) | herbicidal effect on N: redroot pigweed (criteria 0-5) (redroot pigweed) | herbicidal effect on H: barnyard grass (criteria 0-5) (barnyard grass [1]) | herbicidal effect on H: barnyard grass (barnyard grass [2]) | herbicidal effect on P: chickweed (criteria 0-5) (chickweed) | other results
Cc1nn(C)c(=O)c(-c2c(-c3ccc(Oc4ccccc4)cc3)sc3ccc(F)cc23)c1O [2-072] | – | – | – | – | – | – | – | – | – | – | – | – | – | – | – | herbicidal effect on J: blackgrass (blackgrass): 0 (Herbicidal rate of 5% or less (almost no effect)); herbicidal effect on L: windgrass (windgrass): 0 (Herbicidal rate of 5% or less (almost no effect)); herbicidal effect on G: green foxtail (green foxtail): 0 (Herbicidal rate of 5% or less (almost no effect)); herbicidal effect on O: lambsquarters (lambsquarters): 1 (Herbicidal rate of 5% or more and less than 20%); herbicidal effect on R: persian speedwell (persian speedwell): 5 (Herbicidal rate of 90% or more (almost completely withered)); herbicidal effect on M: velvetleaf (velvetleaf): 2 (Herbicidal rate of 20% or more and less than 40%); herbicidal effect on I: wild oat (wild oat): 0 (Herbicidal rate of 5% or less (almost no effect)); herbicidal effect on F: southern crabgrass (southern crabgrass): 0 (Herbicidal rate of 5% or less (almost no effect)); herbicidal effect on E (rice flat sedge), rating 0-5 (rice flat sedge; 320 g/ha): 5 (Herbicidal rate of 90% or more (almost completely withered)); herbicidal effect on K: Italian ryegrass (Italian ryegrass): 0 (Herbicidal rate of 5% or less (almost no effect)); herbicidal effect on D (Chinese sprangletop), rating 0-5 (Chinese sprangletop; 320 g/ha): 3 (Herbicidal rate of 40% or more and less than 70%); herbicidal effect on N: redroot pigweed (redroot pigweed): 3 (Herbicidal rate of 40% or more and less than 70%); herbicidal effect on H: barnyard grass (barnyard grass [1]): 0 (Herbicidal rate of 5% or less (almost no effect)); herbicidal effect on H (barnyard grass), rating 0-5 (barnyard grass [2]; 320 g/ha): 2 (Herbicidal rate of 20% or more and less than 40%); herbicidal effect on P: chickweed (chickweed): 0 (Herbicidal rate of 5% or less (almost no effect))
CSc1ccccc1-c1sc2ccc(C)cc2c1-c1c(O)c(C)nn(C)c1=O [2-142] | 1 (Herbicidal rate of 5% or more and less than 20%) | 0 (Herbicidal rate of 5% or less (almost no effect)) | 0 (Herbicidal rate of 5% or less (almost no effect)) | 0 (Herbicidal rate of 5% or less (almost no effect)) | 3 (Herbicidal rate of 40% or more and less than 70%) | 0 (Herbicidal rate of 5% or less (almost no effect)) | 1 (Herbicidal rate of 5% or more and less than 20%) | 0 (Herbicidal rate of 5% or less (almost no effect)) | 2 (Herbicidal rate of 20% or more and less than 40%) | 1 (Herbicidal rate of 5% or more and less than 20%) | 0 (Herbicidal rate of 5% or less (almost no effect)) | 0 (Herbicidal rate of 5% or less (almost no effect)) | 0 (Herbicidal rate of 5% or less (almost no effect)) | 2 (Herbicidal rate of 20% or more and less than 40%) | 4 (Herbicidal rate of 70% or more and less than 90%) | –
CCCC(=O)Oc1c(C)nn(C)c(=O)c1-c1c(-c2ccc([N+](=O)[O-])cc2)sc2ccc(C)cc12 [2-145] | 0 (Herbicidal rate of 5% or less (almost no effect)) | 0 (Herbicidal rate of 5% or less (almost no effect)) | 3 (Herbicidal rate of 40% or more and less than 70%) | 4 (Herbicidal rate of 70% or more and less than 90%) | 5 (Herbicidal rate of 90% or more (almost completely withered)) | 4 (Herbicidal rate of 70% or more and less than 90%) | 0 (Herbicidal rate of 5% or less (almost no effect)) | 1 (Herbicidal rate of 5% or more and less than 20%) | 4 (Herbicidal rate of 70% or more and less than 90%) | 3 (Herbicidal rate of 40% or more and less than 70%) | 0 (Herbicidal rate of 5% or less (almost no effect)) | 4 (Herbicidal rate of 70% or more and less than 90%) | 3 (Herbicidal rate of 40% or more and less than 70%) | 3 (Herbicidal rate of 40% or more and less than 70%) | 5 (Herbicidal rate of 90% or more (almost completely withered)) | –
